Experimental findings from ChEMBL document CHEMBL1614632, “Trend analysis of a database of intravenous pharmacokinetic parameters in humans for 670 drug compounds” (Drug Metab Dispos, 2008) are described below.

Data set [1] can be described thus: clinical. As to conditions: human, in vivo, iv, CL.
A short description of data set [2]: clinical. As to conditions: human, in vivo, iv.
A short description of data set [3]: clinical. The settings on record: human, in vivo, iv, Vdss.
The nature of data set [4]: clinical. As to conditions: human, in vivo, iv, t1/2.

By clearance is commonly meant the volume of plasma or blood freed of the substance per unit of time. Low readings indicate inefficient removal, high ones efficient removal. The term MRT denotes a mean duration of stay, worked out from the concentration-time curve. As a reminder, the Vd is a proportionality between amount in the body and measured concentration, not a real space. As a reminder, the half-life is how long it takes for the measured level to halve. A higher half-life goes with slow decline.

For the compound `CCC(CC)COC(C(=O)OCCN(C)C)(c1ccccc1)c1ccccc1` [DENAVERINE], the clearance in the data set “clinical [1]” worked out at 5.7 mL/min/kg. Besides, the MRT in the data set “clinical [2]” was found to be 21 h. The compound further yielded a Vd in the data set “clinical [3]” of 7.1 L/kg. Also, the half-life in the data set “clinical [4]” is 34 h.

Regarding `C[C@H](N[C@@H](CCc1ccccc1)C(=O)O)C(=O)N1Cc2ccccc2C[C@H]1C(=O)O`, in “clinical [1]”, the clearance is 0.93 mL/min/kg. The compound also yielded an MRT in “clinical [2]” of 2.3 h. Moreover, in “clinical [3]”, the Vd came out at 0.13 L/kg. Further, the half-life in the data set “clinical [4]” is 2.3 h.

In the data set “clinical [1]”, `C[N+](C)([O-])CCCN1c2ccccc2CCc2ccccc21` [IMIPRAMINOXIDE] yielded a clearance of 12 mL/min/kg. Further, the MRT in “clinical [2]” was 2.6 h. This compound also showed a Vd in “clinical [3]” of 1.9 L/kg. Also, the half-life in the data set “clinical [4]” is 1.8 h.

In the case of `CN(C)CCCN1c2ccccc2Sc2ccc(Cl)cc21` [CHLORPROMAZINE], in “clinical [1]”, the clearance turned out to be 16 mL/min/kg. Further, the MRT in the data set “clinical [2]” came to 10 h. For the same compound, the Vd in “clinical [3]” amounted to 10 L/kg. In the data set “clinical [4]”, this compound showed a half-life of 11 h.

`O=C(O)C(Cl)Cl` [DICHLOROACETIC ACID] came in with a clearance in “clinical [1]” of 5.3 mL/min/kg. In addition, the MRT in “clinical [2]” turned out to be 0.6 h. This compound also displayed a Vd in the data set “clinical [3]” of 0.19 L/kg. In the data set “clinical [4]”, the half-life was 0.65 h.

In the data set “clinical [1]”, `CN[C@@H]1[C@H](O)[C@H](NC)[C@H]2O[C@@]3(O)C(=O)C[C@@H](C)O[C@H]3O[C@@H]2[C@H]1O` [SPECTINOMYCIN] yielded a clearance of 0.99 mL/min/kg. Besides, the MRT in the data set “clinical [2]” came out at 2.2 h. The Vd in the data set “clinical [3]” was determined as 0.13 L/kg. The compound also gave a half-life in the data set “clinical [4]” of 1.8 h.

As for `CC(C)[C@H]1CC[C@H](C(=O)N[C@H](Cc2ccccc2)C(=O)O)CC1` [NATEGLINIDE], in the data set “clinical [1]”, the clearance is 1.8 mL/min/kg. Also, the MRT in the data set “clinical [2]” came out at 1.4 h. The same compound came in with a Vd in “clinical [3]” of 0.15 L/kg. This compound had a half-life in “clinical [4]” of 1.5 h.

In the data set “clinical [1]”, `CC1(C)S[C@@H]2[C@H](/N=C/N3CCCCCC3)C(=O)N2[C@H]1C(=O)O` [AMDINOCILLIN] gave a clearance of 6.3 mL/min/kg. Further, in “clinical [2]”, the MRT was determined as 1 h. The Vd in the data set “clinical [3]” amounted to 0.37 L/kg. Also, in the data set “clinical [4]”, the half-life is 1.1 h.

Take `CC(CC(c1ccccc1)c1ccccc1)NC(C)(C)C` (centres undefined) [TERODILINE]: in the data set “clinical [1]”, the clearance came to 1.1 mL/min/kg. This compound had an MRT in “clinical [2]” of 81 h. This compound also had a Vd in “clinical [3]” of 5.1 L/kg. Moreover, the half-life in the data set “clinical [4]” is 56 h.

Compound `CCN(CC)CCNC(=O)c1ccc(NS(C)(=O)=O)cc1` [SEMATILIDE] gave a clearance in the data set “clinical [1]” of 3.7 mL/min/kg. This compound yielded an MRT in “clinical [2]” of 3.7 h. Further, the distribution volume (Vd) in “clinical [3]” was determined as 0.82 L/kg. Also, in “clinical [4]”, the half-life was 3.8 h.

`COc1nc(C)nc(Cl)c1N=C1NCCN1` [MOXONIDINE] registered a clearance in “clinical [1]” of 11 mL/min/kg. In addition, the MRT in the data set “clinical [2]” turned out to be 2.7 h. Besides, the Vd in “clinical [3]” came to 1.8 L/kg. This compound also had a half-life in “clinical [4]” of 2.2 h.

`CCCCN1CCCCC1C(=O)Nc1c(C)cccc1C` (centres undefined) [BUPIVACAINE] registered a clearance in “clinical [1]” of 4.3 mL/min/kg. In “clinical [2]”, this compound had an MRT of 3.3 h. In “clinical [3]”, this compound had a Vd of 0.84 L/kg. In addition, the half-life in “clinical [4]” is 3.1 h.

Turning to `Cc1cc(O)c2c(=O)c3c(O)cc(O)c4c5c(O)cc(O)c6c(=O)c7c(O)cc(CO)c8c1c2c(c34)c(c65)c78` [PSEUDOHYPERICIN], the clearance in “clinical [1]” is 0.62 mL/min/kg. This compound gave an MRT in “clinical [2]” of 15 h. Moreover, the Vd in the data set “clinical [3]” is 0.56 L/kg. Moreover, the half-life in the data set “clinical [4]” is 20 h.

For `CC[C@H](C)C(=O)O[C@H]1C[C@H](O)C=C2C=C[C@H](C)[C@H](CC[C@@H](O)C[C@@H](O)CC(=O)O)[C@H]21` [PRAVASTATIN], the clearance in the data set “clinical [1]” came to 14 mL/min/kg. The compound further registered a Vd in “clinical [3]” of 0.46 L/kg. This compound also gave a half-life in “clinical [4]” of 0.78 h.

In the data set “clinical [1]”, `O=C(O)P(=O)(O)O` [FOSCARNET] gave a clearance of 2.1 mL/min/kg. The compound also displayed a Vd in “clinical [3]” of 0.5 L/kg. The compound further gave a half-life in the data set “clinical [4]” of 4.7 h.

In turn, `CCC(C)n1ncn(-c2ccc(N3CCN(c4ccc(OCC5COC(Cn6cncn6)(c6ccc(Cl)cc6Cl)O5)cc4)CC3)cc2)c1=O` (centres undefined) [ITRACONAZOLE] displayed a clearance in the data set “clinical [1]” of 5.1 mL/min/kg. This compound also yielded a Vd in the data set “clinical [3]” of 7.4 L/kg. In addition, the half-life in the data set “clinical [4]” was 25 h.

For `CCC1=C(C)CN(C(=O)NCCc2ccc(S(=O)(=O)NC(=O)N[C@H]3CC[C@H](C)CC3)cc2)C1=O` [GLIMEPIRIDE], in the data set “clinical [1]”, the clearance amounted to 0.5 mL/min/kg. This compound yielded a Vd in the data set “clinical [3]” of 0.19 L/kg. In the data set “clinical [4]”, the half-life is 9.95 h.
